Experimental data taken from article PMC13192270, “RhlR quorum-sensing receptor ligand sensitivity regulates the differential expression of phenazine genes in Pseudomonas aeruginosa” (Journal of Bacteriology, 2026).
Residue numbers refer to the chain shown, from its start. Where two headings read alike, the source gives them in different places.

Key:
LasR = tested on: LasR; set-up: method as in PMID 28119451; conditions: cited from earlier work
RhlR (T58F) = target: T1, RhlR (T58F) (Pseudomonas aeruginosa, UniProt P54292, T58F); assay: E. coli prhlA-luxCDABE luciferase reporter assay; assay type: cell-based, Escherichia coli
T1 construct: expressed in transfected cells; host or cells: E. coli carrying pBAD-A-rhlR mutant, pCS26-prhlA-luxCDABE and pACYC-pqsE or empty pACYC
T1 sequence (P54292 1-241 T58F): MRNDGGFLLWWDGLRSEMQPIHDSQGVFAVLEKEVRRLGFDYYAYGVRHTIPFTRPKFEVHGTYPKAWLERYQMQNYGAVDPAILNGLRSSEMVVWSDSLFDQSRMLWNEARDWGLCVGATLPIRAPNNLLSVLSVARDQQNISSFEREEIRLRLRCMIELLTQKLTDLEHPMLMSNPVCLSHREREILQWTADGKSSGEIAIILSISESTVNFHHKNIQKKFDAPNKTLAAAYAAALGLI
Description: (§1) Previous analysis of the RhlR LBP focused on highly conserved residues that were known from other AHL-binding proteins to be important contacts for AHL molecules, particularly the lactone head group. We performed conservation analyses on 300 LuxR-type receptors to determine variable and moderately conserved residues in the LBP (Fig. 1B) and, in conjunction with our previously determined experimental structure of WT RhlR bound to the synthetic agonist mBTL, used for docking C4- and C6HSL. Based on our docking simulations, C4- and C6HSL occupy a similar position in the LBP as mBTL, a highly efficacious activator of RhlR (Fig. 1C; Fig. S1). We targeted residues A44, G46, T58, L69, Y72, D81, I84, W96, and W108 (Fig. 1B and C). These residues were selected because of their proximity to the acyl tail of C4HSL, as well as the differences in conservation that are observed at these sites. We used an E. coli luciferase reporter assay to monitor ligand-dependent activation of WT RhlR and RhlR variants. WT RhlR and RhlR variants were expressed under the control of an arabinose-inducible promoter (Fig. S2). Transcription was monitored by light production via the expression of the luxCDABE operon controlled by the RhlR-dependent promoter of rhlA. Binding of RhlR to the rhlA promoter is highly dependent on the C4HSL-RhlR interaction, based on ChIP-seq analyses performed in P. aeruginosa as well as previously published E. coli reporter systems ([34], [39]). After expressing WT RhlR and RhlR variants in the E. coli reporter system, we performed dose response assays using C4HSL to calculate the concentration of C4HSL required to activate the reporter system to 50% maximum levels (EC50 value; Table 1). As expected, transcription activation by WT RhlR increased with increased C4HSL levels, with an EC50 value of ~2 µM. We observed a range of responses. Figure 1C depicts the targeted residues, which are colored based on the effect of amino acid substitution.
(§2) RhlR requires the accessory-binding protein, PqsE, for maximal activity. To determine if PqsE expression altered the activation of RhlR variants, we assessed AHL-dependent RhlR activation of the prhlA-luxCDABE reporter in the presence of a third plasmid that constitutively expresses PqsE in E. coli. […] RhlR variants that were still active but with increased EC50 values for C4HSL could have their activity enhanced by PqsE. […] Thus, alterations to the LBP can diminish the additive effect of PqsE-dependent transcription, indicating a potential role of allosteric conformational changes dependent on ligand occupancy. […] RhlR variants at residues I84 and W108 could not be activated by C4HSL, and thus, light levels remained low at all concentrations that were tested. Unlike the aforementioned variants, RhlR I84M/W and RhlR W108F/Y were activated by the expression of PqsE (Fig. S4).
(§3) All E. coli strains in this study were grown overnight with shaking in 5 mL Luria-Bertani (LB) media supplemented with 100 µg/mL ampicillin, 50 µg/mL kanamycin, and 15 µg/mL tetracycline at 37°C overnight. Overnight cultures were diluted 1:100 into fresh media, grown at 37°C with shaking for 2 h until reaching OD600 = 0.4. Cultures were induced with a final concentration of 0.1% arabinose, and 198 μL of the induced culture was mixed with 2 μL of C4HSL dilutions in a clear-bottom, black-opaque 96-well plate (Corning) and grown at 37°C with shaking for 4 h. The C4HSL dilution series was performed 1:1 in dimethyl sulfoxide (DMSO) with a top final concentration of 10 μM. Luminescence and optical density were recorded using a Glomax (Promega) plate reader.

RhlR (T58L) = target: T2, RhlR (T58L) (Pseudomonas aeruginosa, UniProt P54292, T58L); assay: E. coli prhlA-luxCDABE luciferase reporter assay; assay type: cell-based, Escherichia coli
T2 construct: expressed in transfected cells; host or cells: E. coli carrying pBAD-A-rhlR mutant, pCS26-prhlA-luxCDABE and pACYC-pqsE or empty pACYC
T2 sequence (P54292 1-241 T58L): T1 sequence (P54292 1-241 T58F) with F58L
Description: as §1, §2, §3

RhlR (T58I) = target: T3, RhlR (T58I) (Pseudomonas aeruginosa, UniProt P54292, T58I); assay: E. coli prhlA-luxCDABE luciferase reporter assay; assay type: cell-based, Escherichia coli
T3 construct: expressed in transfected cells; host or cells: E. coli carrying pBAD-A-rhlR mutant, pCS26-prhlA-luxCDABE and pACYC-pqsE or empty pACYC
T3 sequence (P54292 1-241 T58I): T1 sequence (P54292 1-241 T58F) with F58I
Description: as §1, §2, §3

RhlR (T58V) = target: T4, RhlR (T58V) (Pseudomonas aeruginosa, UniProt P54292, T58V); assay: E. coli prhlA-luxCDABE luciferase reporter assay; assay type: cell-based
T4 construct: expressed in transfected cells; host or cells: E. coli carrying pBAD-A-rhlR mutant, pCS26-prhlA-luxCDABE and pACYC-pqsE or empty pACYC
T4 sequence (P54292 1-241 T58V): T1 sequence (P54292 1-241 T58F) with F58V
Description: as §1, §2, §3

WT RhlR = target: T5, WT RhlR (Pseudomonas aeruginosa, UniProt P54292); assay: E. coli prhlA-luxCDABE luciferase reporter assay; assay type: cell-based; conditions: read-out: EC50
T5 construct: expressed in transfected cells; host or cells: E. coli carrying pBAD-A-rhlR, pCS26-prhlA-luxCDABE and pACYC-pqsE or empty pACYC
T5 sequence (P54292 1-241): T1 sequence (P54292 1-241 T58F) with F58T
Description: as §1, §2, §3

6x-His-PqsE = 6x-His-PqsE (Pseudomonas aeruginosa, UniProt P20581 1-301); assay: cell-based or functional assay

CCCCCCCCCC(=O)CC(=O)N[C@H]1CCOC1=O [3OC12HSL, N-(3-oxododecanoyl)-L-homoserine lactone]
EC50 (LasR): ~2 nM

CCCCCC(=O)N[C@H]1CCOC1=O [C6HSL]
EC50 (RhlR (T58F); Vector (no pqsE)): 580 nM | EC50 (RhlR (T58F); pqsE co-expressed): 103 nM | EC50 (RhlR (T58L); Vector (no pqsE)): 168 nM | EC50 (RhlR (T58L); pqsE co-expressed): 0.908 nM | EC50 (RhlR (T58I); Vector (no pqsE)): 561 nM | EC50 (RhlR (T58I); pqsE co-expressed): 51.1 nM | EC50 (RhlR (T58V); Vector (no pqsE)): 809 nM | EC50 (RhlR (T58V); pqsE co-expressed): 111 nM | EC50 (WT RhlR; Vector (no pqsE)): 12600 nM | EC50 (WT RhlR; pqsE co-expressed): 9240 nM

B1: WT RhlR (receptor)
chain: T1 sequence (P54292 1-241 T58F) with F58T
prhlA-luxCDABE reporter in E. coli: C4HSL-RhlR-dependent expression with PqsE expressed from a third plasmid (pACYC) against the empty vector (6x-His-PqsE): ~20 fold
